Measured values published in US7531695B2, “Therapeutic agents for the treatment of cancer, metabolic diseases and skin disorders” (Auspex Pharmaceutical, Inc, priority 2004, dated 2009).
Counter-ions that a name gives are not always drawn.

Assays:
A375 cells = assay: A375 Tumor Cell Proliferation Assay; format: cell-based; conditions: Homo sapiens, A-375, read-out: LC50 (50% Lethal Concentration)
Protocol: (§1) A375 cells (5,000 per well in 90% RPMI-1640 plus 10% Fetal Bovine Serum [FBS]) were pre-incubated in a black clear bottom 96-well plate in an atmosphere of 5% CO2 at 37° C. for 24 hours. Stock solutions of compounds in DMSO were diluted using a buffer and dilutions were added to each well. […] The final assay pH was 7.4. The cells were incubated in RPMI-1640 with each compound for an additional 72 to 168 hours. Alamar Blue was added and the plate was incubated for an additional 12 hours. Fluorescence intensity was measured using a Gemini plate reader with excitation at 530 nm and emission at 590 nm. A decrease of 50 percent or more (≧50%) in fluorescence intensity relative to vehicle treated controls is an indication of significant anti-cancer activity.

[1] = test system: human head and neck squamous cell carcinoma cells (SCC 103); assay: SCC103 Tumor Cell Proliferation Assay; format: cell-based; conditions: SCC 103 cells; compared to Bexarotene; FIG. 1
Protocol: as §1, with “SCC 103” for “A375”, “(15,000” for “(5,000”, “EMEM medium” for “RPMI-1640”, “EMEM medium” for “RPMI-1640 with each compound”, “72” for “72 to 168”, “Blue (10% of culture volume)” for “Blue”

SMILES	CC50 (A375 cells)	growth inhibitory effect [1]
COc1cccc2c1C(=O)c1c(O)c3c(c(O)c1C2=O)C[C@@](O)(C(=O)CO)C[C@@H]3O[C@H]1C[C@H](N)[C@H](O)[C@H](C)O1 [Doxorubicin]	8 µM	
Cc1cc2c(cc1C(=O)c1ccc(C3=C(O)CCCC3=O)cc1)C(C)(C)CCC2(C)C [Example 8, 3-Hydroxy-2-[4(3,5,5,8,8-pentamethyl-5,6,7,8-tetrahydronaphthalene-2-carbonyl)-phenyl]-cyclohex-2-enone potassium salt]		enhanced activity
C=C(c1ccc(C2=C(O)CCCC2=O)cc1)c1cc2c(cc1C)C(C)(C)CCC2(C)C [Example 5, 5-3-Hydroxy-2-{4-[1-(3,5,5,8,8-pentamethyl-5,6,7,8-tetrahydro-naphthalen-2-yl)-vinyl]-phenyl}-cyclohex-2-enone]		enhanced activity
